Results as given in US20240319212A1, “METHOD OF MEASURING THE ENDOCYTIC VITAMIN D STATUS” (Immundiagnostik AG, priority 2018, published 2024).
Entries after “also recorded” stand apart in the source; their conditions may differ.

What was measured:
DBP [1] = target: T1, DBP (Homo sapiens, UniProt P02774); settings: cited from earlier work
T1 sequence (P02774 17-474): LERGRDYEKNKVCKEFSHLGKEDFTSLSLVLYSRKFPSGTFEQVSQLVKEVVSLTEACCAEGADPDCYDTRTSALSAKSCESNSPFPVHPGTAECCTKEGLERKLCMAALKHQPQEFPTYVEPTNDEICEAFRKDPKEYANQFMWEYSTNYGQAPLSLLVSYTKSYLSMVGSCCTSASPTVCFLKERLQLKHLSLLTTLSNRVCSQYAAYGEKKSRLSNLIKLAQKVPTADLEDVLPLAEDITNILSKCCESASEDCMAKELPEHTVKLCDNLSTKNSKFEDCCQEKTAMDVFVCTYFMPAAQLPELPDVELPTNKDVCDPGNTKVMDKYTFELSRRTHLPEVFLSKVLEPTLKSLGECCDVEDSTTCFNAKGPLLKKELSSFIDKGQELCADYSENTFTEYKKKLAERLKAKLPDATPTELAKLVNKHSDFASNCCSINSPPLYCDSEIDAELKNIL

albumin = albumin (Homo sapiens, UniProt P02768); settings: cited from earlier work
Sequence of albumin (P02768 25-609, species assumed): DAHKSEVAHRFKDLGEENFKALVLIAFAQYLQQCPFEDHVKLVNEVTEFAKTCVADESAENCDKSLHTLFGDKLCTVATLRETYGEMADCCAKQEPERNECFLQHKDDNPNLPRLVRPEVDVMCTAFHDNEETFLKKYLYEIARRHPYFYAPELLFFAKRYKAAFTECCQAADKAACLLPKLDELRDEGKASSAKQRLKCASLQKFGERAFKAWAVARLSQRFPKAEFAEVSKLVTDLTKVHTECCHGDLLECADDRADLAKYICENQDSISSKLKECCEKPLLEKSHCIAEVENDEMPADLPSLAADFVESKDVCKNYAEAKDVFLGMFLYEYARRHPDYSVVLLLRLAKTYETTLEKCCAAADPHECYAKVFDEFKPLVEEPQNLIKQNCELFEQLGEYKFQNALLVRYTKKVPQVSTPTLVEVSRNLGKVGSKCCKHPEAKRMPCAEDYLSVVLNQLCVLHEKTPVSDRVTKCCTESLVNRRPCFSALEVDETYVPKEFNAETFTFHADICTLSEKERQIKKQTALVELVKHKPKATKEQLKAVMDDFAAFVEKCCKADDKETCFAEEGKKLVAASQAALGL

DBP [2] = target: T1, DBP; assay: Microscale thermophoresis of DBP and vitamin D metabolites; type: binding; set-up: purchased Merck 345802; settings: for binding affinity of vitamin D metabolite to DBP, in words: MST, comparison between metabolites; for Kd: NT-647 labelled DBP, metabolite titrated, read-out: dissociation constant Kd, DBP to vitamin D metabolite
Procedure: The binding properties of DBP and 25(OH)VD3, 25(OH)VD2, 24,25(OH)VD and 3C-epimer of 25(OH)D3 on the one hand and megalin on the other was further examined using microscale thermophoresis. […] The vitamin D metabolites were titrated with different concentrations. The dissociation constant Kd was calculated for every interaction partner. The binding affinity was assessed via the obtained dissociation constant Kd.
(§1) Microscale Thermophoresis assay. […] Parameters: laser power, 100%; LED, 80; laser on-time, 30 seconds; laser off-time, 5 seconds; temperature, 25° C. FNorm: normalized fluorescence; Kd: dissociation constant.

megalin M2 fragment = target: T2, megalin M2 fragment (Homo sapiens, UniProt P02774+P98164); assay: Microscale thermophoresis of DBP:VD-metabolite bound by megalin M2 fragment; type: binding; settings: M2 titrated; for Kd: labelled DBP 50 nM mixed with metabolite 37.8 nM, read-out: dissociation constant Kd, megalin M2 fragment to complex DBP:vitamin D metabolite
T2 construct: megalin signal peptide (M1-G25) (N, cleaved yes); made in house
T2 sequence (P98164 1024-1429 limits assumed): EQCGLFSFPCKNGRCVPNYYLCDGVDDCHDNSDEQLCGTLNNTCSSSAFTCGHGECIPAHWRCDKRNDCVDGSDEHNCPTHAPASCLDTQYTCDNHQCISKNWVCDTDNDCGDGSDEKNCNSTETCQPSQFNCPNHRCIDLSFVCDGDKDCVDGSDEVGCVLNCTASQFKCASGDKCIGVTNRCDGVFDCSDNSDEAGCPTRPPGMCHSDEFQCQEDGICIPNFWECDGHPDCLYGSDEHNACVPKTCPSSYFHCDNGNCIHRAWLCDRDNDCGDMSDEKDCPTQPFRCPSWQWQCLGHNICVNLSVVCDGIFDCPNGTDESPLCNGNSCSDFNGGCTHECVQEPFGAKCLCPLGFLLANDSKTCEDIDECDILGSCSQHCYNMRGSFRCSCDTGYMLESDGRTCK
T2 sequence (P02774 17-474): T1 sequence (P02774 17-474)
Procedure: Purified megalin M2 was titrated in different concentrations. The dissociation constant Kd was calculated for every condition. The binding affinity was assessed by the dissociation constant Kd.
as §1

Compound	binding affinity of vitamin D metabolite to DBP, in words (DBP [2])	Kd (megalin M2 fragment)	Kd (DBP [2])	further results
25-hydroxyvitamin D [25(OH)D]				affinity Ka for DBP (DBP [1]): 7e+08 M⁻¹; affinity Ka for albumin (albumin): 600000 M⁻¹
C=C1CC[C@@H](O)C/C1=C/C=C1\CCC[C@]2(C)[C@@H]([C@H](C)CCCC(C)(C)O)CC[C@@H]12 [3C-epi25(OH)VD3, C3-epimer of 25-hydroxyvitamin D3]	bound most strongly			binding affinity of vitamin D metabolite to DBP, in words (DBP [2]; listed as 3C epimer of 25(OH)D3): high binding affinity; affinity of megalin M2 to DBP:metabolite complex, in words (megalin M2 fragment; labelled DBP 50 nM mixed with metabolite): very high affinity
C=C1CC[C@H](O)C/C1=C/C=C1\CCC[C@]2(C)[C@@H]([C@H](C)CCC(O)C(C)(C)O)CC[C@@H]12 (stereo partly drawn) [24,25(OH)VD, 24,25-dihydroxyvitamin D]	slightly weaker; also recorded: marginally lower	171 nM		
C=C1CC[C@H](O)C/C1=C/C=C1\CCC[C@]2(C)[C@@H]([C@H](C)/C=C/[C@H](C)C(C)(C)O)CC[C@@H]12 [25(OH)VD2, 25-hydroxyvitamin D2]	comparable to Kd of DBP-VD3	160 nM	2.81 nM	
C=C1CC[C@H](O)C/C1=C/C=C1\CCC[C@]2(C)[C@@H]([C@H](C)CCCC(C)(C)O)CC[C@@H]12 [25(OH)VD3, 25-hydroxyvitamin D3]		33.7 nM	1.88 nM	
